Among the data in patent US8691827B2, “Amino tetrahydro-pyridopyrimidine PDE10 inhibitors” (Merck Sharp & Dohme Corp., priority 2009, dated 2014) are Ki values, retold here.

Sequence of human PDE10A2 (Q9Y233 267-1055): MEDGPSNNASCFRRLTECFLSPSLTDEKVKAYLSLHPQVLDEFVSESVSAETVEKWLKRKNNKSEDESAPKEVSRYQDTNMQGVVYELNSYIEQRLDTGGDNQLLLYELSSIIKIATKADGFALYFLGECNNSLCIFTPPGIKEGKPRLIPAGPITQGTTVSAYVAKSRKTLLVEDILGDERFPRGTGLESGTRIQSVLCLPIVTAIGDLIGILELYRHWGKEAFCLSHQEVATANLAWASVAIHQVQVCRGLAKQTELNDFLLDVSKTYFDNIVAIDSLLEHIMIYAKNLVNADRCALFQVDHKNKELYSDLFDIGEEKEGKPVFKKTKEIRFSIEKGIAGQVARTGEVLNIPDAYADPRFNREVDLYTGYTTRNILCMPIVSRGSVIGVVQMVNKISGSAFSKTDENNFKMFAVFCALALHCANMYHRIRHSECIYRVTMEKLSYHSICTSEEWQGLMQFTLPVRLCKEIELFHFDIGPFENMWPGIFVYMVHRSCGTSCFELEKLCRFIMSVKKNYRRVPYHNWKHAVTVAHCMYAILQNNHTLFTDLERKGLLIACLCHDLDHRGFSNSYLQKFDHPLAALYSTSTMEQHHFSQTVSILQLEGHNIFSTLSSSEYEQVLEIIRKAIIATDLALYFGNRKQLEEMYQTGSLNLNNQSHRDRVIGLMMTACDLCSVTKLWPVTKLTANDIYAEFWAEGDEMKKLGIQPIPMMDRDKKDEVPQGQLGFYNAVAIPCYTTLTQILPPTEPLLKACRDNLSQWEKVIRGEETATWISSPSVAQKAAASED

This assay addresses human PDE10A2 (Homo sapiens (Human), UniProt Q9Y233). Description: PDE10 fluorescence polarization (IMAP FP) inhibition assay. Format: biochemical. Particulars: FAM-labeled cAMP 50 nM, room temperature, read-out: PDE10A Ki. On the procedure: The activity of the compounds in accordance with the present invention as PDE10 inhibitors may be readily determined without undue experimentation using a fluorescence polarization (FP) methodology that is well known in the art (Huang, W., et al., J. Biomol Screen, 2002, 7: 215).
In a typical experiment the PDE10 inhibitory activity of the compounds of the present invention was determined in accordance with the following experimental method. PDE10A2 was amplified from human fetal brain cDNA (Clontech, Mountain View, Calif.) using a forward primer corresponding to nucleotides 56-77 of human PDE10A2 (Accession No. AF127480, Genbank Identifier 4894716), containing a Kozak consensus sequence, and a reverse primer corresponding to nucleotides 2406-2413 of human PDE10A2 (Accession No. AF127480, Genbank Identifier 4894716). Amplification with Easy-A polymerase (Stratagene, La Jolla, Calif.) was 95° C. for 2 minutes followed by thirty three cycles of 95° C. for 40 seconds, 55° C. for 30 seconds, and 72° C. for 2 minutes 48 seconds. Final extension was 72° C. for 7 minutes. The PCR product was TA cloned into pcDNA3.2-TOPO (Invitrogen, Carlsbad, Calif.) according to standard protocol. AD293 cells with 70-80% confluency were transiently transfected with human PDE10A2/pcDNA3.2-TOPO using Lipofectamine 2000 according to manufacturer specifications (Invitrogen, Carlsbad, Calif.). Cells were harvested 48 hours post-transfection and lysed by sonication (setting 3, 10×5 sec pulses) in a buffer containing 20 mM HEPES, 1 mM EDTA and protease inhibitor cocktail (Roche). Lysate was collected by centrifugation at 75,000×g for 20 minutes. Supernatant containing the cytoplasmic fraction was used for evaluation of PDE10A2 activity. The fluorescence polarization assay for cyclic nucleotide phosphodiesterases was performed using an IMAP® FP kit supplied by Molecular Devices, Sunnyvale, Calif. (product # R8139). IMAP® technology has been applied previously to phosphodiesterase assays (Huang, W., et al., J. Biomol Screen, 2002, 7: 215). Assays were performed at room temperature in 384-well microtiter plates with an incubation volume of 20.2 μL. Solutions of test compounds were prepared in DMSO and serially diluted with DMSO to yield 8 μL of each of 10 solutions differing by 3-fold in concentration, at 32 serial dilutions per plate. 100% inhibition is determined using a known PDE10 inhibitor, which can be any compound that is present at 5,000 times its Ki value in the assay described as follows, such as papaverine (see Siuciak, et al. Neuropharmacology (2006) 51:386-396; Becker, et al. Behav Brain Res (2008) 186(2):155-60; Threlfell, et al., J Pharmacol Exp Ther (2009) 328(3):785-795), 2-{4-[pyridin-4-yl-1-(2,2,2-trifluoroethyl)-1H-pyrazol-3-yl]phenoxymethyl}quinoline succinic acid or 2-[4-(1-methyl-4-pyridin-4-yl-1H-pyrazol-3-yl)-phenoxymethyl]quinoline succinic acid (see Schmidt, et al. J Pharmacol Exp Ther (2008) 325:681-690; Threlfell, et al., J Pharmacol Exp Ther (2009) 328(3): 785-795). 0% of inhibition is determined by using DMSO (1% final concentrations). A Labcyte Echo 555 (Labcyte, Sunnyvale, Calif.) is used to dispense 200 nL from each well of the titration plate to the 384 well assay plate. A solution of enzyme ( 1/1600 dilution from aliquots; sufficient to produce 20% substrate conversion) and a separate solution of FAM-labeled cAMP PDE from Molecular Devices (product # R7506), at a final concentration of 50 nM are made in the assay buffer (10 mM Tris HCl, pH 7.2, 10 mM MgCl2, 0.05% NaN3 0.01% Tween-20, and 1 mM DTT). The enzyme and the substrate are then added to the assay plates in two consecutive additions of 10 μL, and then shaken to mix. The reaction is allowed to proceed at room temperature for 30 minutes. A binding solution is then made from the kit components, comprised of 80% Solution A, 20% Solution B and binding reagent at a volume of 1/600 the total binding solution. […]
In general, Ki refers to a dissociation constant, usually derived from enzyme kinetics or from competition with a known ligand. For the compound `O=C(Nc1ccccc1)N1CCc2nc(-c3ccncc3)nc(NCCc3ccccn3)c2C1` [Compound 1-1, N-phenyl-2-pyridin-4-yl-4-[(2-pyridin-2-ylethyl)amino]-7,8-dihydropyrido[4,3-d]pyrimidine-6(5H)-carboxamide], the Ki stood at 0.0479 µM. Regarding `O=C(Nc1ccccc1)N1CCc2nc(-c3ccncc3)nc(NCc3ccccn3)c2C1` [Compound 1-2, N-phenyl-2-pyridin-4-yl-4-[(pyridin-2-ylmethyl)amino]-7,8-dihydropyrido[4,3-d]pyrimidine-6(5H)-carboxamide], the Ki is 0.192 µM. Take `O=C(Nc1ccccc1)N1CCc2nc(-c3ccncc3)nc(N3CCc4ccncc4C3)c2C1` [Compound 1-3, 4-(3,4-dihydro-2,7-naphthyridin-2(1H)-yl)-N-phenyl-2-pyridin-4-yl-7,8-dihydropyrido[4,3-d]pyrimidine-6(5H)-carboxamide]: the Ki was found to be 0.162 µM.

For `COc1cccc(C2CN(c3nc(-c4cccnc4)nc4c3CN(C(=O)Nc3ccccc3)CC4)CCN2)c1` (stereo not drawn) [Compound 1-4, 4-[3-(3-methoxyphenyl)-piperazin-1-yl]-N-phenyl-2-pyridin-3-yl-7,8-dihydropyrido[4,3-d]pyrimidine-6(5H)-carboxamide], the Ki worked out at 0.153 µM. On to `COC(=O)NCCNc1nc(-c2cccnc2)nc2c1CN(C(=O)Nc1ccccc1)CC2` [Compound 1-5, methyl-(2-{[6-(anilinocarbonyl)-2-pyridin-3-yl-5,6,7,8-tetrahydropyrido[4,3-d]pyrimidin-4-yl]amino}ethyl)carbamate], for which the Ki stood at 0.0953 µM. Regarding `O=C(Nc1ccccc1)N1CCc2nc(-c3ccc(F)nc3)nc(NCCc3ccccn3)c2C1` [Compound 1-6, 2-(6-fluoropyridin-3-yl)-N-phenyl-4-[(2-pyridin-2-ylethyl)amino]-7,8-dihydropyrido[4,3-d]pyrimidine-6(5H)-carboxamide], the Ki was found to be 0.114 µM. Regarding `CC(C)CC(=O)N1CCc2nc(-c3cncc(-c4cncnc4)c3)nc(N(C)Cc3ccccc3)c2C1` [Compound 1-7, 1-{4-[benzyl(methyl)amino]-2-[5-(pyrimidin-5-yl)pyridin-3-yl[-7,8-dihydropyrido]4,3-d]pyrimidin-6(5H)-yl}-3-methylbutan-1-one], the Ki came out at 0.063 µM.

For the compound `CC(C)CC(=O)N1CCc2nc(-c3cncc(-c4cn[nH]c4)c3)nc(N(C)Cc3ccccc3)c2C1` [Compound 1-8, 1-{4-[benzyl(methyl)amino]-2-[5-(1H-pyrazol-4-yl)pyridin-3-yl]-7,8-dihydropyrido[4,3-d]pyrimidin-6(5H)-yl}-3-methylbutan-1-one], the Ki was 0.015 µM.

For the compound `O=C(Nc1ccccc1)N1CCc2nc(-c3cccnc3)nc(NCc3c[nH]c(-c4ccccc4)n3)c2C1` [Compound 1-9, N-phenyl-4-{[(2-phenyl-1H-imidazol-4-yl)methyl]amino}-2-(pyridin-3-yl)-7,8-dihydropyrido[4,3-d]pyrimidine-6(5H)-carboxamide], the Ki stood at 0.00219 µM.
